According to patent US20240174669A1, “CRYSTALLINE FORMS OF A PARP1 INHIBITOR” (XinThera, Inc., priority 2022, published 2024):
Converted amounts (≈) assume the structure as drawn.

Assay: Solubility estimation at RT by visual observation in solvent systems
Assay type: physicochemical
Conditions: organic solvent or mixture, thermodynamic from solid
Description: The solubility of compound 1 was estimated at RT by visual observation in 11 solvent systems. Approximately 5 mg solids were weighed into 8 mL glass vial, and then solvent was added stepwise until solids were dissolved completely or a total of solvent volume reached 5 mL. […] The solubility was estimated and for reference only.

solubility (most of the 11 tested solvent systems, RT, most tested solvents, except DMSO): < 5000 µg/mL | solubility (estimated at RT, visual observation, DMSO): 20000 to 50000 µg/mL (≈ 47.8 to 119 mM) | solubility (estimated at RT, Acetone, ACN, Toluene, EA, n-Heptane, Water, Anisole, DCM, THF): < 1000 µg/mL | solubility (estimated, visual observation, MeOH, THF (50° C.)): 1000 to 5000 µg/mL (≈ 2.39 to 11.9 mM)
Structure (SMILES): CNC(=O)c1ccc(N2CCN(Cc3cnc4cc(C5CC5)c(=O)[nH]c4c3)CC2)cn1 [Starting material, 5-(4-((7-cyclopropyl-6-oxo-5,6-dihydro-1,5-naphthyridin-3-yl)methyl)piperazin-1-yl)-N-methylpicolinamide]
